{
  "source": "patent US10894052B2",
  "about": "“Heterocyclic inhibitors of ATR kinase” (Board of Regents, The University of Texas System, priority 2018, dated 2021)",
  "key": {"[1]": {"tested_on": "ATR-driven phosphorylation of Chk1 kinase at Serine 345 in HT-29 cells", "assay": "pCHK1 cellular assay (CHK1 p-Ser345 AlphaScreen SureFire)", "assay_type": "cell-based", "conditions": "Homo sapiens; HT-29 colorectal adenocarcinoma cells; 4-nitroquinoline N-oxide 12 μM; read-out: Cell IC50 (pCHK1)", "experimental": "(§1) The ability of the compounds of Formula I to inhibit the catalytic activity of the ATR/ATRIP complex was measured in a Caliper-based assay, and in HT-29 cells in an Alphascreen assay, following the ATR-mediated phosphorylation of CHK1, described below.\nCellular IC50 for the inhibitors of ATR described herein were measured in HT-29 colorectal adenocarcinoma cells.\nThe microplate was incubated overnight (approximately 20 hours) at 37° C. with 5% CO2 and ambient O2. Stock solutions of the test compounds were prepared in 100% DMSO (Sigma, Catalog #D2650) and serially diluted 1:3 using 100% DMSO. Compounds were additionally diluted 1:33 in culture medium, and 10 μL/well were transferred to the tissue culture plate. Following the compound addition, the microplate was incubated at 37° C. for 90 minutes. […] The cells were then washed with PBS and lysed using 10 μL/well […]® Kit lysis buffer diluted to 1× in water (PerkinElmer Catalog #TGRCHK1S50K), with mixing on an orbital shaker at 500 rpm for 20 min at room temperature. Lysates were frozen at −20 OC overnight.\nThe pCHK1 ALPHASCREEN® signal was measured using an ENVISION® plate reader (PerkinElmer). IC50 values were calculated using a four-parameter logistic curve fit using Genedata Screener software. Percent of control for each compound concentration was calculated by the following formula: 100*(Compound−Min)/(Max−Min), where “Max” is the high control, DMSO, and “Min” is the low control, 5 μM ATR inhibitor."}, "[2]": {"molecular_target": "ATR/ATRIP complex (Homo sapiens (Human), UniProt Q13535)", "sequence (Q13535 whole entry)": "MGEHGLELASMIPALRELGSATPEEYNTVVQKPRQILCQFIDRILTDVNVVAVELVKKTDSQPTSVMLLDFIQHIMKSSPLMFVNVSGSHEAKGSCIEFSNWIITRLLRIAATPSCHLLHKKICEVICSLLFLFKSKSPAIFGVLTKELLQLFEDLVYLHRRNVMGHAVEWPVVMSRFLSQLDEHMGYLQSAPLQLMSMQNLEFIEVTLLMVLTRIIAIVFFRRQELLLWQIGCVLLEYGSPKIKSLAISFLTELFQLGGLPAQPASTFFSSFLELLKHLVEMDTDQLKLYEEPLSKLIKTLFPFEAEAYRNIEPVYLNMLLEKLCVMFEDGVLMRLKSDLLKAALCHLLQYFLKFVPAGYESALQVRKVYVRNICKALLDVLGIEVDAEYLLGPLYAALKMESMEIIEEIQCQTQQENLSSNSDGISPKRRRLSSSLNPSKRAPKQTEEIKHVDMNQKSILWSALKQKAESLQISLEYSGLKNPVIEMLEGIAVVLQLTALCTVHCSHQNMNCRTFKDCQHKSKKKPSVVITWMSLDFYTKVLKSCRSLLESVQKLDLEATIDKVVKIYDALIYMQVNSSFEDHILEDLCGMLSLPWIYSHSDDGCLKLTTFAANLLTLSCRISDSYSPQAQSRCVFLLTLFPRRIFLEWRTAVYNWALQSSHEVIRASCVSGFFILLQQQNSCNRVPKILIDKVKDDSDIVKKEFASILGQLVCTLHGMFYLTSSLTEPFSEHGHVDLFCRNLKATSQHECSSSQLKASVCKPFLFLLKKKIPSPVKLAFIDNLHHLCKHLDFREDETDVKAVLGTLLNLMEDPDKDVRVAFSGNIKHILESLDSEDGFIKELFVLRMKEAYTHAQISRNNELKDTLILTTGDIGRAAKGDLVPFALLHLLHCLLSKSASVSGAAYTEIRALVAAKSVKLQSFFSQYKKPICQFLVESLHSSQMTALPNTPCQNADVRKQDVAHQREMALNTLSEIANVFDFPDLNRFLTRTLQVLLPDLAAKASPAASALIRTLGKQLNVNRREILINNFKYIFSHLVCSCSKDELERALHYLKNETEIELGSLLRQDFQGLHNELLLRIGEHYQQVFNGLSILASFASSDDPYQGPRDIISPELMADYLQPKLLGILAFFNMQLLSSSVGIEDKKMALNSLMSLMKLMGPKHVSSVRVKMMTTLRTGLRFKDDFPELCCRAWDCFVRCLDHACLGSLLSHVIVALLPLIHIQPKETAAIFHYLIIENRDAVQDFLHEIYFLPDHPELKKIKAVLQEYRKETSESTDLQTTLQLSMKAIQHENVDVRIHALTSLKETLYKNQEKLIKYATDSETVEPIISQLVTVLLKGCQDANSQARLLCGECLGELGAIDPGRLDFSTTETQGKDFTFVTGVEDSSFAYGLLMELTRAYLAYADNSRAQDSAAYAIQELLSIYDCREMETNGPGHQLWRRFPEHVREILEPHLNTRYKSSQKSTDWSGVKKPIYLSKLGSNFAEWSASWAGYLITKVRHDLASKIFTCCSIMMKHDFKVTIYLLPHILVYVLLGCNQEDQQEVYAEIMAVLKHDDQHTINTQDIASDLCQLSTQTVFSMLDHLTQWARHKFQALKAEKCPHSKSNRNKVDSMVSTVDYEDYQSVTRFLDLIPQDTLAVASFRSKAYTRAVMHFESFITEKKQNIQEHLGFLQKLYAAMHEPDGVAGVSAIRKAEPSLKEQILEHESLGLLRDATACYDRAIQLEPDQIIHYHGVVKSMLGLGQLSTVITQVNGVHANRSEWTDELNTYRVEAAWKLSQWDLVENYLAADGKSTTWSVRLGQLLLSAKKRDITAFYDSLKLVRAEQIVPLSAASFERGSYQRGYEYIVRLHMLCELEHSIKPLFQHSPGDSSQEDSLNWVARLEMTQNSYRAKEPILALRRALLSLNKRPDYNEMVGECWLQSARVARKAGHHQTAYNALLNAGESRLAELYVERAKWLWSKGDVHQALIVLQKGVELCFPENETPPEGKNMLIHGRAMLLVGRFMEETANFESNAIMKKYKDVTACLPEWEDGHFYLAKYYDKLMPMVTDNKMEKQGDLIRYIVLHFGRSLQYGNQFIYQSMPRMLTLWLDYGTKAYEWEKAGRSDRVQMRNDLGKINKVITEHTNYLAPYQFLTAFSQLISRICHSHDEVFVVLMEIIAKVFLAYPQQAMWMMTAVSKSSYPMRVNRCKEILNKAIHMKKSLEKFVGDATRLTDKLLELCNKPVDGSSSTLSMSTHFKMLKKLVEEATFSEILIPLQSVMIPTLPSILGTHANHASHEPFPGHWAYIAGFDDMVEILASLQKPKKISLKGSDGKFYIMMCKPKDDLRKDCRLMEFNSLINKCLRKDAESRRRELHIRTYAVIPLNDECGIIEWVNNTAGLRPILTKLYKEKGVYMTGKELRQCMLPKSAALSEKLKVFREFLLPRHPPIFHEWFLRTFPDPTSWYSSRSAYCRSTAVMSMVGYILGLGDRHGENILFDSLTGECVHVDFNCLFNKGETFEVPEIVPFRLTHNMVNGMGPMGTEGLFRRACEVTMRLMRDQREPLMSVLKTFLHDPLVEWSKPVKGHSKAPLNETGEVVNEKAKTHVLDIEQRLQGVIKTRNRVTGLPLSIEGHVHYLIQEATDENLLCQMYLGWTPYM", "sequence (Q8WXE1 whole entry partner)": "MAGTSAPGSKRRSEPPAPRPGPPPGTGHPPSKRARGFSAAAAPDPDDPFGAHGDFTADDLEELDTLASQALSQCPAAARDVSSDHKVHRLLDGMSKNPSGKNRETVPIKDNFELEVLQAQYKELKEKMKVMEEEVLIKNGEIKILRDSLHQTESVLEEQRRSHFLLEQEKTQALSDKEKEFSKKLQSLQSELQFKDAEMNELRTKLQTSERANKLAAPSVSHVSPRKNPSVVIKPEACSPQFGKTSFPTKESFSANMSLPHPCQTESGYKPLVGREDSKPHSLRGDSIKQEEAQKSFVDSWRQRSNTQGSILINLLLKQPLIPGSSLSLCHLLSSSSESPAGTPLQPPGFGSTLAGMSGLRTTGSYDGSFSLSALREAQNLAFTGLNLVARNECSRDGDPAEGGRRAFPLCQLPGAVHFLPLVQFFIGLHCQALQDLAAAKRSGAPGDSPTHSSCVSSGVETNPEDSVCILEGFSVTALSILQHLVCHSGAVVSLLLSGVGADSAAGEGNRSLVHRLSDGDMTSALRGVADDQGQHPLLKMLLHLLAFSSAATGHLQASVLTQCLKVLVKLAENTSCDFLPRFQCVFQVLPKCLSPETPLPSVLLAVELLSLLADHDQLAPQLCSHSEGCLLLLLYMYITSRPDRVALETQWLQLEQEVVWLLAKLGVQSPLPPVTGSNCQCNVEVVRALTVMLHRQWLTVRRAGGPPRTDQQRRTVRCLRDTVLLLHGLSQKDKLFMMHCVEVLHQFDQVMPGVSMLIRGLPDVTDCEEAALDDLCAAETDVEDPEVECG", "assay": "ATR/ATRIP enzymatic assay (Caliper-based)", "assay_type": "biochemical", "conditions": "ATR/ATRIP enzyme; FAM-labeled RAD17 peptide, ATP", "experimental": "as §1\nHuman full-length FLAG-TEV-ATR and His6-ATRIP were co-expressed in HEK293 cells. […] The sample was loaded into a column, and then washed with buffer A three times. Protein was subsequently eluted with 2 ml of buffer B (buffer A+200 μg/ml 3×FLAG peptide).\nThe ability of new chemical matter to inhibit the ATR catalytic activity in this ATR/ATRIP complex was assessed using a Caliper-based assay. A 2× enzyme solution (i.e., 4 nM enzyme) was prepared using 1× Kinase Reaction Buffer (25 mM HEPES pH 8, 0.0055% Brij-35, 10 mM MnCl2, and 1 mM DTT). […] 10 μL of the 2× enzyme solution was transferred to an assay plate containing 60 nL of test compound (from a 3× serial dilution) in 100% DMSO. Following a 30-min incubation at 28° C., 10 μL of the 2× peptide solution was then transferred to the same assay plate. The reaction incubated at 28° C. for 6 h. After adding 30 μL stop buffer (100 mM HEPES pH 7.5, 0.015% Brij-35, 0.2% Coating-3 Reagent (PerkinElmer, catalog #PN760050), and 50 mM EDTA), data were collected on a Caliper instrument. Conversion values were converted to inhibition values via the following equation: % inhibition=(max−conversion)/(max−min)*100, wherein “max” corresponds to the DMSO control, and “min” corresponds to the low control. IC50 values were calculated using the following equation in XLFit: Y=Bottom+(Top−Bottom)/1+(IC50/X)^HillSlope)."}},
  "data": [
    {"smiles": "C[C@@H]1COCCN1c1cc(N=S(C)(C)=O)nc(-n2c(CO)nc3ccccc32)c1", "note": "[Example 7, (R)-((6-(2-(Hydroxymethyl)-1H-benzo[d]imidazol-1-yl)-4-(3-methylmorpholino)pyridin-2-yl)imino)dimethyl-λ^6-sulfanone]", "values": [
      {"measurement": "IC50", "setting": "[1]", "value": 8620, "unit": "nM"},
      {"measurement": "IC50", "setting": "[2]", "value": 16, "unit": "nM"}
    ]},
    {"smiles": "C[C@@H]1COCCN1c1cc(N=S(C)(C)=O)nc(-n2cnc3cccnc32)c1", "note": "[Example 5, (R)-((6-(3H-Imidazo[4,5-b]pyridin-3-yl)-4-(3-methylmorpholino)pyridin-2-yl)imino)dimethyl-λ^6-sulfanone]", "values": [
      {"measurement": "IC50", "setting": "[1]", "value": 10000, "unit": "nM"},
      {"measurement": "IC50", "setting": "[2]", "value": 44, "unit": "nM"}
    ]},
    {"smiles": "C[C@@H]1COCCN1c1cc(N=S2(=O)CCCC2)nc(-c2ccnc3[nH]ccc23)c1", "note": "[Example 26, (R)-1-((4-(3-methylmorpholino)-6-(1H-pyrrolo[2,3-b]pyridin-4-yl)pyridin-2-yl)imino)tetrahydro-1H-1-λ^6-thiophene 1-oxide]", "values": [
      {"measurement": "IC50", "setting": "[1]", "value": 701, "unit": "nM"},
      {"measurement": "IC50", "setting": "[2]", "value": 8, "unit": "nM"}
    ]},
    {"smiles": "C[C@@H]1COCCN1c1cc(N=S(C)(C)=O)nc(-n2c(C(F)F)nc3ccccc32)c1", "note": "[Example 6, (R)-((6-(2-(Difluoromethyl)-1H-benzo[d]imidazol-1-yl)-4-(3-methylmorpholino)pyridin-2-yl)imino)dimethyl-λ^6-sulfanone]", "values": [
      {"measurement": "IC50", "setting": "[1]", "value": 2320, "unit": "nM"},
      {"measurement": "IC50", "setting": "[2]", "value": 5, "unit": "nM"}
    ]},
    {"smiles": "C[C@@H]1COCCN1c1cc(N=S(C)(C)=O)nc(-c2cnn(C)c2)c1", "note": "[Example 34, (R)-dimethyl((6-(1-methyl-1H-pyrazol-4-yl)-4-(3-methylmorpholino)pyridin-2-yl)imino)-λ^6-sulfanone]", "values": [
      {"measurement": "IC50", "setting": "[1]", "value": 10000, "unit": "nM"},
      {"measurement": "IC50", "setting": "[2]", "value": 3440, "unit": "nM"}
    ]},
    {"smiles": "C[C@@H]1COCCN1c1cc(N=S(C)(C)=O)nc(-c2nccn2C)c1", "note": "[Example 31, (R)-dimethyl((6-(1-methyl-1H-imidazol-2-yl)-4-(3-methylmorpholino)pyridin-2-yl)imino)-λ^6-sulfanone]", "values": [
      {"measurement": "IC50", "setting": "[1]", "value": 3060, "unit": "nM"},
      {"measurement": "IC50", "setting": "[2]", "value": 3470, "unit": "nM"}
    ]},
    {"smiles": "C[C@@H]1COCCN1c1cc(N=S(C)(C)=O)nc(-c2cncc3[nH]ccc23)c1", "note": "[Example 13, (R)-dimethyl((4-(3-methylmorpholino)-6-(1H-pyrrolo[2,3-c]pyridin-4-yl)pyridin-2-yl)imino)-λ^6-sulfanone]", "values": [
      {"measurement": "IC50", "setting": "[1]", "value": 232, "unit": "nM"},
      {"measurement": "IC50", "setting": "[2]", "value": 9, "unit": "nM"}
    ]},
    {"smiles": "C[C@@H]1COCCN1c1cc(N=S(C)(C)=O)nc(-c2ccnc3[nH]cnc23)c1", "note": "[Example 2, (R)-((6-(3H-Imidazo[4,5-b]pyridin-7-yl)-4-(3-methylmorpholino)pyridin-2-yl)imino)dimethyl-λ^6-sulfanone]", "values": [
      {"measurement": "IC50", "setting": "[1]", "value": 804, "unit": "nM"},
      {"measurement": "IC50", "setting": "[2]", "value": 118, "unit": "nM"}
    ]},
    {"smiles": "CNc1nc2ccccc2n1-c1cc(N2CCOC[C@H]2C)cc(N=S(C)(C)=O)n1", "note": "[Example 10, (R)-Dimethyl((6-(2-(methylamino)-1H-benzo[d]imidazol-1-yl)-4-(3-methylmorpholino)pyridin-2-yl)imino)-λ^6-sulfanone]", "values": [
      {"measurement": "IC50", "setting": "[1]", "value": 35, "unit": "nM"},
      {"measurement": "IC50", "setting": "[2]", "value": 1, "unit": "nM"}
    ]}
  ]
}
